Experimental data reported in paper PMC10945555, “Improving Activity of New Arylurea Agents against Multidrug-Resistant and Biofilm-Producing Staphylococcus epidermidis” (ACS Medicinal Chemistry Letters, 2024).
In brackets after ≈: the same amount, converted by molar mass. Where two headings read alike, the source gives them in different places.

Tests used:
[1] = tested on: Staphylococcus epidermidis ATCC 35984; assay: MIC, broth microdilution, MDR/BPSE reference strain; type: cell-based; details: Staphylococcus epidermidis, ATCC35984, read-out: MIC MDR/BPSE, Staphylococcus epidermidis ATCC 35984
Text: These strains included susceptible, multidrug-resistant, and biofilm-producing strains of S. epidermidis and S. aureus (MSSE, MDR/BPSE, and MDR/BPSA, respectively). The cornerstone antibiotic linezolid served as a positive control (Table 1). The impact of structural modifications at the aryloxy fragment and the aromatic moiety bound to the propyl linker on the inhibitory activity was initially investigated. […] Further optimization focused on evaluating the impact of the type of substituent and its position on the arylsulfonamide fragment’s activity.
(§1) 2 Biological assay protocols
(§2) Microbiological tests were carried out under aseptic conditions in a laminar chamber of the 2nd […]
(§3) (BioTectum 1.2, Alchem Poland). The assessment of antimicrobial activity was carried out for final compounds in the form of free bases, soluble in DMSO (Merck, Germany), at the initial […]
(§4) concentration of 1 mg/mL. […]
were provided by Cayman Chemical, USA.
The activity of all newly synthesized compounds was tested in vitro on a panel of selected reference strains from the American Type Culture Collection (ATCC) of Gram-positive […]
(§5) 2.2 Effect of evaluated compounds on planktonic cells
(§6) The susceptibility of three reference bacterial strains (Staphylococcus epidermidis ATCC […]
(§7) Table S1) and 81 clinical MDR S. epidermidis (Table S2) to the tested compounds was assessed by determining the MIC value (Minimal Inhibitory Concentration) by microdilution in a liquid medium in 96-well flat-bottom cell culture plates (Nest Biotechnology Scientific, USA). The antibacterial properties of the compo unds were tested in the concentration range from 50 µg/mL to 0.1 µg/mL by making a series of double dilutions of the compound in liquid Mueller -Hinton II Broth Cation Adjusted (MHB II, BBL TM, USA) according to the European Committee on […]
(§8) Antimicrobial Susceptibility Testing guidelines (EUCAST).2,3 The determinations were performed twice. The MIC50 and MIC90 values were determined for each of the tested

[2] = tested on: clinical MDR Staphylococcus epidermidis isolates; assay: MIC, broth microdilution, 81 clinical MDR strains; type: cell-based; details: Staphylococcus epidermidis
Experimental: as §1, §2, §3, §4
were provided by Cayman Chemical, USA. […]
The antibacterial activity of selected compounds was also tested on a panel of 81 unrelated, multidrug -resistant clinical strains of Staphylococcus epidermidis from the own collection of the Department of Pharmaceutical Microbiology of the Jagiellonian University Medical College.
as §5, §6, §7, §8

## O=C(Nc1cccc(Cl)c1)NC1CCN(CCC(Oc2ccc(C(F)(F)F)cc2)c2cccs2)CC1 (stereo not drawn) [Compound 25]
[1]
  MIC: ≤ 0.8 µg/mL
[2]; 81 clinical strains (Table S5), read-out: Average of MIC
  MIC: 1.84 µg/mL (≈ 3.42 µM)
[2]; clinical strain 1 (Table S2), read-out: MIC
  MIC: 0.8 µg/mL (≈ 1.49 µM)
[2]; clinical strain 1 (Table S5), read-out: MIC
  MIC: 1.6 µg/mL (≈ 2.97 µM)
[2]; clinical strain 2 (Table S2), read-out: MIC
  MIC: 0.8 µg/mL (≈ 1.49 µM)
[2]; clinical strain 2 (Table S5), read-out: MIC
  MIC: 1.6 µg/mL (≈ 2.97 µM)
[2]; clinical strain 3 (Table S2), read-out: MIC
  MIC: 0.8 µg/mL (≈ 1.49 µM)
[2]; clinical strain 3 (Table S5), read-out: MIC
  MIC: 0.8 µg/mL (≈ 1.49 µM)
[2]; clinical strain 4 (Table S2), read-out: MIC
  MIC: 3.12 µg/mL (≈ 5.81 µM)
[2]; clinical strain 4 (Table S5), read-out: MIC
  MIC: 1.6 µg/mL (≈ 2.97 µM)
[2]; clinical strain 5 (Table S2), read-out: MIC
  MIC: 0.8 µg/mL (≈ 1.49 µM)
[2]; clinical strain 6 (Table S2), read-out: MIC
  MIC: 1.6 µg/mL (≈ 2.97 µM)
[2]; clinical strain 6 (Table S5), read-out: MIC
  MIC: 1.6 µg/mL (≈ 2.97 µM)
[2]; clinical strain 7 (Table S2), read-out: MIC
  MIC: 1.6 µg/mL (≈ 2.97 µM)
[2]; clinical strain 7 (Table S5), read-out: MIC
  MIC: 1.6 µg/mL (≈ 2.97 µM)
[2]; clinical strain 8 (Table S2), read-out: MIC
  MIC: 1.6 µg/mL (≈ 2.97 µM)
[2]; clinical strain 8 (Table S5), read-out: MIC
  MIC: 0.8 µg/mL (≈ 1.49 µM)
[2]; clinical strain 9 (Table S2), read-out: MIC
  MIC: 0.8 µg/mL (≈ 1.49 µM)
[2]; clinical strain 9 (Table S5), read-out: MIC
  MIC: 3.12 µg/mL (≈ 5.81 µM)
[2]; clinical strain 10 (Table S2), read-out: MIC
  MIC: 3.12 µg/mL (≈ 5.81 µM)
[2]; clinical strain 10 (Table S5), read-out: MIC
  MIC: 3.12 µg/mL (≈ 5.81 µM)
[2]; clinical strain 11 (Table S2), read-out: MIC
  MIC: 1.6 µg/mL (≈ 2.97 µM)
[2]; clinical strain 11 (Table S5), read-out: MIC
  MIC: 1.6 µg/mL (≈ 2.97 µM)
[2]; clinical strain 12 (Table S2), read-out: MIC
  MIC: 3.12 µg/mL (≈ 5.81 µM)
[2]; clinical strain 12 (Table S5), read-out: MIC
  MIC: 1.6 µg/mL (≈ 2.97 µM)
[2]; clinical strain 13 (Table S2), read-out: MIC
  MIC: 1.6 µg/mL (≈ 2.97 µM)
[2]; clinical strain 13 (Table S5), read-out: MIC
  MIC: 1.6 µg/mL (≈ 2.97 µM)
[2]; clinical strain 14 (Table S2), read-out: MIC
  MIC: 3.12 µg/mL (≈ 5.81 µM)
[2]; clinical strain 14 (Table S5), read-out: MIC
  MIC: 1.6 µg/mL (≈ 2.97 µM)
[2]; clinical strain 15 (Table S2), read-out: MIC
  MIC: 1.6 µg/mL (≈ 2.97 µM)
[2]; clinical strain 15 (Table S5), read-out: MIC
  MIC: 3.12 µg/mL (≈ 5.81 µM)
[2]; clinical strain 16 (Table S2), read-out: MIC
  MIC: 3.12 µg/mL (≈ 5.81 µM)
[2]; clinical strain 16 (Table S5), read-out: MIC
  MIC: 1.6 µg/mL (≈ 2.97 µM)
[2]; clinical strain 17 (Table S2), read-out: MIC
  MIC: 1.6 µg/mL (≈ 2.97 µM)
[2]; clinical strain 17 (Table S5), read-out: MIC
  MIC: 0.1 µg/mL (≈ 0.186 µM)
[2]; clinical strain 18 (Table S2), read-out: MIC
  MIC: 1.6 µg/mL (≈ 2.97 µM)
[2]; clinical strain 18 (Table S5), read-out: MIC
  MIC: 3.12 µg/mL (≈ 5.81 µM)
[2]; clinical strain 19 (Table S2), read-out: MIC
  MIC: 1.6 µg/mL (≈ 2.97 µM)
[2]; clinical strain 19 (Table S5), read-out: MIC
  MIC: 0.8 µg/mL (≈ 1.49 µM)
[2]; clinical strain 20 (Table S2), read-out: MIC
  MIC: 0.1 µg/mL (≈ 0.186 µM)
[2]; clinical strain 20 (Table S5), read-out: MIC
  MIC: 1.6 µg/mL (≈ 2.97 µM)
[2]; clinical strain 21 (Table S2), read-out: MIC
  MIC: 1.6 µg/mL (≈ 2.97 µM)
[2]; clinical strain 21 (Table S5), read-out: MIC
  MIC: 1.6 µg/mL (≈ 2.97 µM)
[2]; clinical strain 22 (Table S2), read-out: MIC
  MIC: 1.6 µg/mL (≈ 2.97 µM)
[2]; clinical strain 22 (Table S5), read-out: MIC
  MIC: 0.8 µg/mL (≈ 1.49 µM)
[2]; clinical strain 23 (Table S2), read-out: MIC
  MIC: 1.6 µg/mL (≈ 2.97 µM)
[2]; clinical strain 23 (Table S5), read-out: MIC
  MIC: 1.6 µg/mL (≈ 2.97 µM)
[2]; clinical strain 24 (Table S2), read-out: MIC
  MIC: 0.8 µg/mL (≈ 1.49 µM)
[2]; clinical strain 24 (Table S5), read-out: MIC
  MIC: 1.6 µg/mL (≈ 2.97 µM)
[2]; clinical strain 25 (Table S2), read-out: MIC
  MIC: 3.12 µg/mL (≈ 5.81 µM)
[2]; clinical strain 25 (Table S5), read-out: MIC
  MIC: 0.8 µg/mL (≈ 1.49 µM)
[2]; clinical strain 26 (Table S2), read-out: MIC
  MIC: 1.6 µg/mL (≈ 2.97 µM)
[2]; clinical strain 26 (Table S5), read-out: MIC
  MIC: 3.12 µg/mL (≈ 5.81 µM)
[2]; clinical strain 27 (Table S2), read-out: MIC
  MIC: 0.4 µg/mL (≈ 0.743 µM)
[2]; clinical strain 27 (Table S5), read-out: MIC
  MIC: 3.12 µg/mL (≈ 5.81 µM)
[2]; clinical strain 28 (Table S2), read-out: MIC
  MIC: 0.8 µg/mL (≈ 1.49 µM)
[2]; clinical strain 28 (Table S5), read-out: MIC
  MIC: 0.8 µg/mL (≈ 1.49 µM)
[2]; clinical strain 29 (Table S2), read-out: MIC
  MIC: 1.6 µg/mL (≈ 2.97 µM)
[2]; clinical strain 29 (Table S5), read-out: MIC
  MIC: 0.4 µg/mL (≈ 0.743 µM)
[2]; clinical strain 30 (Table S2), read-out: MIC
  MIC: 3.12 µg/mL (≈ 5.81 µM)
[2]; clinical strain 30 (Table S5), read-out: MIC
  MIC: 0.8 µg/mL (≈ 1.49 µM)
[2]; clinical strain 31 (Table S2), read-out: MIC
  MIC: 0.8 µg/mL (≈ 1.49 µM)
[2]; clinical strain 31 (Table S5), read-out: MIC
  MIC: 1.6 µg/mL (≈ 2.97 µM)
[2]; clinical strain 32 (Table S2), read-out: MIC
  MIC: 1.6 µg/mL (≈ 2.97 µM)
[2]; clinical strain 32 (Table S5), read-out: MIC
  MIC: 1.6 µg/mL (≈ 2.97 µM)
[2]; clinical strain 33 (Table S2), read-out: MIC
  MIC: 3.12 µg/mL (≈ 5.81 µM)
[2]; clinical strain 33 (Table S5), read-out: MIC
  MIC: 1.6 µg/mL (≈ 2.97 µM)
[2]; clinical strain 34 (Table S2), read-out: MIC
  MIC: 1.6 µg/mL (≈ 2.97 µM)
[2]; clinical strain 34 (Table S5), read-out: MIC
  MIC: 1.6 µg/mL (≈ 2.97 µM)
[2]; clinical strain 35 (Table S2), read-out: MIC
  MIC: 1.6 µg/mL (≈ 2.97 µM)
[2]; clinical strain 35 (Table S5), read-out: MIC
  MIC: 1.6 µg/mL (≈ 2.97 µM)
[2]; clinical strain 36 (Table S2), read-out: MIC
  MIC: 0.8 µg/mL (≈ 1.49 µM)
[2]; clinical strain 36 (Table S5), read-out: MIC
  MIC: 1.6 µg/mL (≈ 2.97 µM)
[2]; clinical strain 37 (Table S2), read-out: MIC
  MIC: 1.6 µg/mL (≈ 2.97 µM)
[2]; clinical strain 37 (Table S5), read-out: MIC
  MIC: 1.6 µg/mL (≈ 2.97 µM)
[2]; clinical strain 38 (Table S2), read-out: MIC
  MIC: 1.6 µg/mL (≈ 2.97 µM)
[2]; clinical strain 38 (Table S5), read-out: MIC
  MIC: 1.6 µg/mL (≈ 2.97 µM)
[2]; clinical strain 39 (Table S2), read-out: MIC
  MIC: 1.6 µg/mL (≈ 2.97 µM)
[2]; clinical strain 39 (Table S5), read-out: MIC
  MIC: 0.8 µg/mL (≈ 1.49 µM)
[2]; clinical strain 40 (Table S2), read-out: MIC
  MIC: 1.6 µg/mL (≈ 2.97 µM)
[2]; clinical strain 40 (Table S5), read-out: MIC
  MIC: 0.8 µg/mL (≈ 1.49 µM)
[2]; clinical strain 41 (Table S2), read-out: MIC
  MIC: 0.8 µg/mL (≈ 1.49 µM)
[2]; clinical strain 41 (Table S5), read-out: MIC
  MIC: 1.6 µg/mL (≈ 2.97 µM)
[2]; clinical strain 42 (Table S2), read-out: MIC
  MIC: 0.8 µg/mL (≈ 1.49 µM)
